Results as given in patent publication US11472805B2, “Tricyclic compounds and their use as phosphodiesterase inhibitors” (Pfizer Inc., priority 2015, dated 2022).
Like-named read-outs stand apart in the source and are kept apart here.

Tests used:
Type in all cases: biochemical
Human PDE4A3 = Human PDE4A3 (Homo sapiens (Human), UniProt P27815); experiment: PDE4A3 Scintillation Proximity Assay (SPA), inhibition of enzyme activity; conditions: read-out: Human PDE4A FL
How it was run: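 Recombinant human PDE4A3 expressed in insect cells, purified via Ni-NTA, anti-FLAG and size exclusion. SPA run 30 min at 25 °C in 50 mM Tris pH 7.5, 1.3 mM MgCl2, 0.01% Brij with 1 μM cAMP (20 nM 3H-cAMP), […], ~20% substrate conversion; stopped with yttrium silicate beads.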

Human PDE4B1 = Human PDE4B1 (Homo sapiens (Human), UniProt Q07343, S133E/S654A/S659A/S661A); experiment: PDE4B1 Scintillation Proximity Assay (SPA), inhibition of enzyme activity; conditions: read-out: Human PDE4B FL
Human PDE4B1, sequence (Q07343 122-736 S133E/S654A/S659A/S661A): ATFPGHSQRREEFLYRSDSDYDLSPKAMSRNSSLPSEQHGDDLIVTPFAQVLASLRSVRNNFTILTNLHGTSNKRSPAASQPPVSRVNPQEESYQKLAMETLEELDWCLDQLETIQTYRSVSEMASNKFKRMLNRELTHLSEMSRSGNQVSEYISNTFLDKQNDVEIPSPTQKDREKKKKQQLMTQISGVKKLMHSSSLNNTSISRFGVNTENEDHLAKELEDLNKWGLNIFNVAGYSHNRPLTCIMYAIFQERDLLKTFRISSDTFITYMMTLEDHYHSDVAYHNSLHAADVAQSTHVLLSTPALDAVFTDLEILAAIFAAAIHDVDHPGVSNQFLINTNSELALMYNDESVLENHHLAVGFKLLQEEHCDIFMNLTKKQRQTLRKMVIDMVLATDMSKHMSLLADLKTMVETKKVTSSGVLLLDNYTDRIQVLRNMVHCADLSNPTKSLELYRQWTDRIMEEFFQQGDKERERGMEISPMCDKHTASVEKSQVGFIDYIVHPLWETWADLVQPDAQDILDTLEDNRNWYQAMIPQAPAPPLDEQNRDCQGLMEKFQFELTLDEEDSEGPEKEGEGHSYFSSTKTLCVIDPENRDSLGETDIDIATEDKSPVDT
How it was run: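 His-tagged enzyme from baculovirus-infected insect cells, Ni-NTA purified. SPA with 1 μM cAMP (20 nM 3H-cAMP tracer) in 50 mM Tris pH 7.5, 1.3 mM MgCl2, 0.01% Brij, […] PDE4B enzyme for ~20% substrate conversion; 30 min at 25 °C, stopped with yttrium silicate beads, read after 8 h settling.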

Human PDE4C1 = Human PDE4C1 (Homo sapiens (Human), UniProt Q08493); experiment: PDE4C1 Scintillation Proximity Assay (SPA), inhibition of enzyme activity; conditions: read-out: Human PDE4C FL
Human PDE4C1, sequence (Q08493 2-712): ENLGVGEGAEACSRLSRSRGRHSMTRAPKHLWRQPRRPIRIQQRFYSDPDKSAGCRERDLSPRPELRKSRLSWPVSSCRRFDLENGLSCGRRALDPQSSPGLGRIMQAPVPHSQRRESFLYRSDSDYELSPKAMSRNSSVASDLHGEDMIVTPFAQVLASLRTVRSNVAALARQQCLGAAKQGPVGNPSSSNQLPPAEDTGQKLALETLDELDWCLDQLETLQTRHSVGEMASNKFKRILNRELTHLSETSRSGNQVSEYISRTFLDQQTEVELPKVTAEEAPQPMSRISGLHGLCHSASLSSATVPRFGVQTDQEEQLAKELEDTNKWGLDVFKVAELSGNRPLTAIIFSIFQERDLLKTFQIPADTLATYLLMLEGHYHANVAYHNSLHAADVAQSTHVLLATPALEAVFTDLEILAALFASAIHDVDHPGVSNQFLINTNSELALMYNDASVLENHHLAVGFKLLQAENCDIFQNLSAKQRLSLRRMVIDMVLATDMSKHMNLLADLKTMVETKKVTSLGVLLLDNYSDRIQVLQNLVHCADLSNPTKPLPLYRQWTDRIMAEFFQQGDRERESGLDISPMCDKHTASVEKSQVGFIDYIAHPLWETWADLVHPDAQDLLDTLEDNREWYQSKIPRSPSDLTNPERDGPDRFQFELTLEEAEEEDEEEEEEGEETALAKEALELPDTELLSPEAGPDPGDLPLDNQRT
How it was run: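 Recombinant insect-cell-expressed human PDE4C1 […] in 50 mM Tris pH 7.5, 1.3 mM MgCl2, 0.01% Brij with 1 μM cAMP (3H-cAMP tracer), ~20% substrate conversion, inhibitor concentration range. Incubated 30 min at 25° C; stopped with yttrium silicate SPA beads, read by scintillation after 8 h settling.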

human PDE4D3 = human PDE4D3 (Homo sapiens (Human), UniProt Q08499); experiment: PDE4D3 Scintillation Proximity Assay (SPA), inhibition of enzyme activity; conditions: read-out: Human PDE4D FL
human PDE4D3, sequence (Q08499 186-808): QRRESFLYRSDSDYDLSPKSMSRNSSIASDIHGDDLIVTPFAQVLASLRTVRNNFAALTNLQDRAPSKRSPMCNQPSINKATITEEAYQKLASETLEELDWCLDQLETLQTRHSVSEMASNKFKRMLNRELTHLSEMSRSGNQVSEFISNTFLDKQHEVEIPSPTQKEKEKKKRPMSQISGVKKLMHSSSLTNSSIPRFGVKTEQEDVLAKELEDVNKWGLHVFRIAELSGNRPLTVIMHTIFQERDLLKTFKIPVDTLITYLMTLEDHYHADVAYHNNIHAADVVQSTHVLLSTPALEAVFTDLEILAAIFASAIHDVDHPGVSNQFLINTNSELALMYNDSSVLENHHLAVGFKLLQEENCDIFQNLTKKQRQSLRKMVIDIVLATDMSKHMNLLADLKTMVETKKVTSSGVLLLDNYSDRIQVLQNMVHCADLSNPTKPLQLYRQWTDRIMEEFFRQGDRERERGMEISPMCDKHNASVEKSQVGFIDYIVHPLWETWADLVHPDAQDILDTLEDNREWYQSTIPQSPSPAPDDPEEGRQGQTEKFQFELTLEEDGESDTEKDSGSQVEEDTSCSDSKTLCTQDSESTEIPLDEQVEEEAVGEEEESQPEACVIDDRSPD
How it was run: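 His-tagged human PDE4D3 (aa 50–672), expressed in insect cells, hydrolysed 1 μM cAMP (3H tracer plus cold) for 30 min at 25° C in 50 mM Tris pH 7.5, 1.3 mM MgCl2 and 0.01% Brij. Enzyme level was set for ~20% conversion. Product was read by yttrium silicate SPA beads after 8 h settling.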

[1] = Table 9, geometric mean of 2-9 determinations unless otherwise indicated
[2] = Table 10, geometric mean of 2-9 determinations unless otherwise indicated

Human PDE4A3, sequence (P27815 other isoform, or with tags, fused parts or gaps): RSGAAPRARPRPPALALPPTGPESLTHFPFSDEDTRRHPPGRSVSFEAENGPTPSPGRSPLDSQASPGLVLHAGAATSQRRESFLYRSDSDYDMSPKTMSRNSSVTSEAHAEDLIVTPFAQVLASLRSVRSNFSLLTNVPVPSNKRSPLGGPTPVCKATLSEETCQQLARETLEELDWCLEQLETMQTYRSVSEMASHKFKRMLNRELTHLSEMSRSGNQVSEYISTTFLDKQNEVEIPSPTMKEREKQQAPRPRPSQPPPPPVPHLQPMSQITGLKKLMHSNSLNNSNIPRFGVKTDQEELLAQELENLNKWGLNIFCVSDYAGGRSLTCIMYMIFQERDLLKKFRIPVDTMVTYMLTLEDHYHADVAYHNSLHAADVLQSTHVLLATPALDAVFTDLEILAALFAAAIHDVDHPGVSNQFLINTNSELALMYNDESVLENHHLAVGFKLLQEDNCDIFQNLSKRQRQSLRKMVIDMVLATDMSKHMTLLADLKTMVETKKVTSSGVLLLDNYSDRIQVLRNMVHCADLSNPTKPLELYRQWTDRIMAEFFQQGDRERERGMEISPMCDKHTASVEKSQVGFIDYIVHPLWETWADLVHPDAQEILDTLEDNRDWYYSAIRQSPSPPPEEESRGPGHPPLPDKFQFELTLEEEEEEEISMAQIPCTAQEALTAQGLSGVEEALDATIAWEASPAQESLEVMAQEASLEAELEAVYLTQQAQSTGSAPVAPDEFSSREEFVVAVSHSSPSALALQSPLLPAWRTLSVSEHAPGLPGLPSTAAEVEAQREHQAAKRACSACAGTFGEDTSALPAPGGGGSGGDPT

Compound	IC50 (Human PDE4A3; [1]) [nM]	IC50 (Human PDE4B1; [1]) [nM]	IC50 (Human PDE4C1; [1]) [nM]	IC50 (human PDE4D3; [1]) [nM]	IC50 (Human PDE4A3; [2]) [nM]	IC50 (Human PDE4B1; [2]) [nM]	IC50 (Human PDE4C1; [2]) [nM]	IC50 (human PDE4D3; [2]) [nM]
COc1c(F)cc(-c2c3n(c4cccnc24)CCN(C2CC2)C3=O)cc1F [Example 24, 8-Cyclopropyl-10-(3,5-difluoro-4-methoxyphenyl)-7,8-dihydropyrido[2′,3′:4,5]pyrrolo[1,2-a]pyrazin-9(6H)-one]	4.48	2.94	24.5	125	–	–	–	–
CCCc1cnc(N2CCn3c(c(-c4ccc(Cl)cc4)c4ncccc43)C2=O)nc1 [Example 95, 10-(4-Chlorophenyl)-8-(5-propylpyrimidin-2-yl)-7,8-dihydropyrido[2′,3′:4,5]pyrrolo[1,2-a]pyrazin-9(6H)-one]	–	–	–	–	345	1890	649	1920
COc1ccc(-c2c3n(c4cccnc24)CCN(C2CC2)C3=O)cc1F [Example 45, 8-Cyclopropyl-10-(3-fluoro-4-methoxyphenyl)-7,8-dihydropyrido[2′,3′:4,5]pyrrolo[1,2-a]pyrazin-9(6H)-one]	1.59	5.81	7.88	281	–	–	–	–
Cc1cc(C#N)ccc1-c1c2n(c3scnc13)CCN(C1CC1)C2=O [Example 14, 4-(7-Cyclopropyl-8-oxo-5,6,7,8-tetrahydro[1,3]thiazolo[4′,5′:4,5]pyrrolo[1,2-a]pyrazin-9-yl)-3-methylbenzonitrile]	18.5	19.3	79	2090	–	–	–	–
CS(=O)(=O)N1CCn2c(c(-c3ccc(Cl)cc3)c3ncccc32)C1=O [Example 79, 10-(4-Chlorophenyl)-8-(methylsulfonyl)-7,8-dihydropyrido[2′,3′:4,5]pyrrolo[1,2-a]pyrazin-9(6H)-one]	–	–	–	–	104	212	173	120
CS(=O)(=O)c1cccc(-c2c3n(c4cccnc24)CCN(C2CC2)C3=O)c1 [Example 94, 8-Cyclopropyl-10-(3-(methylsulfonyl)phenyl)-7,8-dihydropyrido[2′,3′:4,5]pyrrolo[1,2-a]pyrazin-9(6H)-one]	–	–	–	–	720	467	1050	858
O=C1c2c(-c3ccc(Cl)c(F)c3)c3c(n2CCN1C1CC1)CCCO3 [Example 76, 10-(4-Chloro-3-fluorophenyl)-8-cyclopropyl-3,4,7,8-tetrahydro-2H-pyrano[2′,3′:4,5]pyrrolo[1,2-a]pyrazin-9(6H)-one]	< 0.31	< 0.55	2	21.6	–	–	–	–
Cc1ccc(-c2c3n(c4cccnc24)CCN(C2CC2)C3=O)cc1C [Example 33, 8-Cyclopropyl-10-(3,4-dimethylphenyl)-7,8-dihydropyrido[2′,3′:4,5]pyrrolo[1,2-a]pyrazin-9(6H)-one]	4.93	6.09	11.2	497	–	–	–	–
Cc1cc(C#N)ccc1-c1c2n(c3cccnc13)CCN(C1CC1)C2=O [Example 50, 4-(8-Cyclopropyl-9-oxo-6,7,8,9-tetrahydropyrido[2′,3′:4,5]pyrrolo[1,2-a]pyrazin-10-yl)-3-methylbenzonitrile]	2.99	6.9	9.62	356	–	–	–	–
N#Cc1ccc(-c2c3n(c4cccnc24)CC2CCCN2C3=O)cc1 (stereo not shown) [Example 61, 4-(11-Oxo-6a,7,8,9-tetrahydro-6H,11H-pyrido[2′,3′:4,5]pyrrolo[1,2-a]pyrrolo[1,2-d]pyrazin-12-yl)benzonitrile]	35.1	39	60.3	1640	–	–	–	–
Cc1ncc(-c2c3n(c4cccnc24)CCN(C2CC2)C3=O)cn1 [Example 21, 8-Cyclopropyl-10-(2-methylpyrimidin-5-yl)-7,8-dihydropyrido[2′,3′:4,5]pyrrolo[1,2-a]pyrazin-9(6H)-one]	8.6	75.9	132	4340	–	–	–	–
Cc1ccc(-c2c3n(c4cccnc24)CCN(C2CC2)C3=O)cc1 [Example 20, 8-Cyclopropyl-10-(4-methylphenyl)-7,8-dihydropyrido[2′,3′:4,5]pyrrolo[1,2-a]pyrazin-9(6H)-one]	2.52	4.88	11.5	465	–	–	–	–
CCCc1ccnc(N2CCn3c(c(-c4ccc(Cl)cc4)c4ncccc43)C2=O)n1 [Example 97, 10-(4-Chlorophenyl)-8-(4-propylpyrimidin-2-yl)-7,8-dihydropyrido[2′,3′:4,5]pyrrolo[1,2-a]pyrazin-9(6H)-one]	–	–	–	–	287	1040	526	1130
N#Cc1ccc(-c2c3n(c4scnc24)CCN(C2CC2)C3=O)cn1 [Example 71, 5-(7-Cyclopropyl-8-oxo-5,6,7,8-tetrahydro[1,3]thiazolo[4′,5′:4,5]pyrrolo[1,2-a]pyrazin-9-yl)pyridine-2-carbonitrile]	27.6	43.5	52.5	1070	–	–	–	–
O=C1c2c(C3CCCC3)c3ncccc3n2CCN1C1CC1 [Example 86, 10-Cyclopentyl-8-cyclopropyl-7,8-dihydropyrido[2′,3′:4,5]pyrrolo[1,2-a]pyrazin-9(6H)-one]	–	–	–	–	2.52	2.63	18.1	29
COc1ccc(-c2c3n(c4cccnc24)CCN(C2CC2)C3=O)cc1 [Example 44, 8-Cyclopropyl-10-(4-methoxyphenyl)-7,8-dihydropyrido[2′,3′:4,5]pyrrolo[1,2-a]pyrazin-9(6H)-one]	33	6.37	86	212	–	–	–	–
